Consider three compounds from patent US10000641B2, “Method and composition for preventing corrosion of metal surfaces” (Ecolab USA Inc., priority 2010, dated 2018).

Where only a bound is given, the exact number is not on record here.

Data set [1] in a line: standard testing procedures for biodegradability.
Data set [2] can be described thus: Linear Polarisation Resistance (LPR) Bubble test, corrosion rate. The protocol: The corrosion inhibition (CI) performance of compounds and compositions of the invention and the performance of comparative examples was tested by means of Linear Polarisation Resistance (LPR) Bubble test measurements.
In general, the LPR Bubble test method uses a test cell, typically made from glass, which is fitted with a probe containing electrodes which are connected to an electrochemical measurement system and associated software. The cell is also fitted with a gas inlet and frit to allow constant purging with CO2 gas. The cell can be loaded with test fluids, typically brine or a combination of brine and a suitable oil phase. The liquids may be stirred, typically at low or moderate speeds, or may be static. The instantaneous rate of corrosion can be measured throughout the experiment by means of the electrochemical probe which extends into the water phase. Other experiments, such as a cyclic sweep, or cyclic polarisation measurement, can also be performed.
In our experiments, the LPR cells were loaded with 95 parts of water (brine) and 5 parts kerosene. The test temperature was 50° C. in all experiments, while details of the water phase pH values relevant to each water composition are given in this Table. The cells were continuously purged with CO2 gas and a stirring speed of 100 rpm was used.
To perform the test, the electrode was allowed to pre-corrode for 2 hours, after which a test corrosion inhibitor composition was added to the kerosene phase. The test was then continued for a total of approximately 14 hours.

Data set [3] relates to Skeletonema costatum. As to the kind of experiment: ISO 10253 1998 water quality marine algal growth inhibition test. The class given is cell-based. The method, then:
Toxicity (EC50) was measured by a standard test: ISO 10253 1998 water quality—marine algal growth inhibition test with Skeletonema costatum.

The mark [4] stands for this setting: Table 5, Brine A, 10 ppm, blends also contain ethoxylated fatty acid ester and Na thiosulfate.
Where [5] appears, read: Brine B, 50° C., 10 ppm test chemical with sodium thiosulfate.

Take `O=C([O-])c1ccccc1.[Na+]` [sodium benzoate]: the biodegraded result in data set [1] (after 7 days) is given as “about 85.5%”; in data set [1] (after 14 days), “about 95%”; in data set [1] (after 28 days), 100%.
A word on the % Inhibition: it is the share of the control response that was lost under treatment. Consider `CCCCCCCCCC[N+](C)(C)CCCCCCCCCC` [Mixture E], for which, in data set [2] (setting [4]), the “% Inhibition” value worked out at 99.8% and the Final corrosion rate is 0.009 mmpy.
Regarding Na Oleyl amphoacetate, the “Algae toxicity (EC50)” value in data set [3] came out at 2.0 mg/L. Further, the “% Inhibition” value in data set [2] (Brine A, 50° C., 10 ppm test chemical with sodium thiosulfate) was 96.81%; in data set [2] (setting [5]) it was above 99.99%. The Final corrosion rate in data set [2] (Brine A, 50° C., 10 ppm test chemical with sodium thiosulfate, 95:5 brine:kerosene, CO2 purge) was found to be 0.12 mmpy; in data set [2] (setting [5]) it was 0.00014 mmpy.
